Assay: SP value (solubility parameter) calculated by Formula 1
Type: physicochemical
Conditions: 25°C (298 K), calculated by Formula 1 from latent heat of vaporization, molecular weight, density
Text: The SP value refers to the solubility parameter, and the SP value of the water-soluble organic solvent (B) can be determined by formula 1 below. SP value(unit:((cal/cm^3))^(1/2)) = ({(ΔH−RT)/(M/D)})^(1/2) [formula]

| Structure (SMILES) | SP value (25°C) |
| --- | --- |
| CC(O)CO (stereo not drawn) [1,2-propanediol] | 12.6 (cal/cm^3)^1/2 |
| CC(O)COC(C)COC(C)CO (stereo not drawn) [Tripropylene glycol] | 9.0 (cal/cm^3)^1/2 |
| OCC(O)CO [glycerin] | 14.9 (cal/cm^3)^1/2 |
